# Data taken from patent US20150290204A1, “COMBINATION THERAPY” (NOVARTIS AG, priority 2012, published 2015).
# Read-outs that look alike come from different tables or passages of the source.
# Legend:
# [1] = Stability of Compound A dosing formulation; type: physicochemical; details: dissolved in 0.5% MC/0.5% Tween 80; room temperature
# Description: Compound A was dissolved in 0.5% MC/0.5% Tween 80. […] The dosing volume was 10 ml/kg.
# [2] = mouse, in vivo
# Description: (§1) For the in vivo testing in FIGS. 1 and 2, female nude (nu/nu) harlan mice bearing HLUX-1787 lung primary tumor xenografts were treated with AUY922, Compound A, a combination of AUY922 and Compound A, or vehicle at the indicated doses and schedules. Treatments started 24 days post tumor cells implantation and lasted 20 consecutive days. Statistics on change in tumor volumes and were performed with a one-way ANOVA, post hoc Tukey (* p<0.05 vs. vehicle controls).
# as §1, with “FIGS. 3” for “FIGS. 1”, “and 4,” for “and 2,”, “started 27” for “started 24”, “lasted 13” for “lasted 20”
# Treatment dose was body weight adjusted. Tumor dimensions and body weights were collected at the time of randomization and twice weekly thereafter for the study duration. […]
# The % change in body weight was calculated as (BWcurrent−BWinitial)/(BWinitial)×100%. […]
# Tumor volume and percent body weight change were expressed as mean±standard error of the mean (SEM). Plasma concentration of compound was expressed as mean±standard deviation. […]
smiles,measurement,setting,value
"Cc1cc(Nc2ncc(Cl)c(Nc3ccccc3S(=O)(=O)C(C)C)n2)c(OC(C)C)cc1C1CCNCC1 [Compound A, 5-chloro-N2-(2-isopropoxy-5-methyl-4-(piperidin-4-yl)phenyl)-N4-[2-(propane-2-sulfonyl)-phenyl]-pyrimidine-2,4-diamine]",Stability of dosing formulation,[1],stable for at least one week at room temperature
same,Tolerability,[2]; 10 mg/kg,well tolerated
same,Tolerability,[2]; 25 mg/kg,well tolerated
